System: yeast genes (expressed mRNA)
Assay: DNA chip measurement of expressed mRNA of yeast genes after culture with a toxic chemical substance
Assay type: cell-based, Saccharomyces cerevisiae S288C
Protocol: Yeast (Saccharomyces cerevisiae S288C (a SUC2mal mel gap2 CUP1)) were cultured at 25° C. on YPD medium (yeast extract 1%, polypeptone 2%, glucose 2%). One of toxic chemical substances was added to the cell at logarithmic growth phase, and the cell was further cultured for two hours. Cell was cultured without any chemical substance in the same condition, and was used as a control. Concentrations of the chemical substances were defined to inhibit the growth of the yeast but not lead to death.
After the completion of cultivation, the culture was centrifuged to collect the cells. To the cells, sodium acetate buffer (50 mM sodium acetate, 10 mM EDTA, 1% SDS) was added, and the mixture was shaken at 65° C. for five minutes, followed by returning to room temperature, and obtaining the supernatant, which procedure was repeated two times. To the supernatant, ½ amount of a solution of phenol/chloroform (1:1) was added, and the mixture was centrifuged to give a supernatant, an equal amount of chloroform was added, and the mixture was centrifuged to give a supernatant. To the supernatant, an equal amount of isopropanol containing 0.3 M sodium acetate was added, and the mixture was allowed to stand at room temperature for 30 minutes, after which the mixture was centrifuged to give sediment of the whole RNAs. Seventy % ethanol was added to the sediment, and the mixture was again centrifuged to give sediment, which was then dried and dissolved in water. mRNA was isolated from the whole RNAs as followings. In view of the fact that a poly A chain is attached to the 3′ terminus of mRNA, a polynucleotide having a poly T structure which was immobilized on the surface of latex beads was used to trap the mRNA, and then the mRNA was washed and eluted with spine column (Oligotex-dT30<Super>mRNA Purification Kit, Takara). Reverse transcription of the mRNA was conducted with a reverse transcriptase (Super Script II Reverse Transcriptase; catalogue No. 18064-014, GibcoBRL) using fluorescence-labeled nucleotides to give cDNAs that were introduced with Cy3-dUTP or Cy5-dUTP during the reverse transcription.
The labeled cDNAs were dissolved in TE buffer (10 mM Tris-HCl/1 mM EDTA, pH 8.0), and the solution was dropped on the DNA chip containing the whole genes of yeast (DNA Chip Research Inc. Japan) so that the cDNAs were hybridized on the DNA chip at 65° C. for over 12 hours. The fluoresces intensity of the DNA chip was read with a scanner, and the ratio relative to the fluorescence intensity resulting from the absence of chemical substance was estimated as the following, which is shown in Tables 1 to 9.
In the Tables, “Intensity” indicated in the rightmost column is a value of the level of expressed mRNA of each gene in control cells as divided by the average level of the expressions of the whole genes. A gene of which mRNA level is lower in control, and is higher in cases of addition of chemical substance, is especially useful in the detection of toxic substances.
Here, when a ratio of an amount of mRNA expressed in the presence of the chemical substance to an amount of mRNA expressed in the absence of the chemical substance is two or more, then it is considered significant.

For `CCCCCCCCCCCCOS(=O)(=O)[O-].[Na+]` [(18), Sodium lauryl sulfate], the “The level of expressed mRNA in the presence of chemical substance/The level of expressed mRNA in the absence of chemical substance” value (yeast gene YJR054W, cultured two hours with substance) was 0.9, the “The level of expressed mRNA in the presence of chemical substance/The level of expressed mRNA in the absence of chemical substance” value (yeast gene YKL034W, cultured two hours with substance) was 1.2 and the “The level of expressed mRNA in the presence of chemical substance/The level of expressed mRNA in the absence of chemical substance” value (yeast gene YKL071W, cultured two hours with substance) was 0.9. The “The level of expressed mRNA in the presence of chemical substance/The level of expressed mRNA in the absence of chemical substance” value (yeast gene YKL086W, cultured two hours with substance) was 1.0, the “The level of expressed mRNA in the presence of chemical substance/The level of expressed mRNA in the absence of chemical substance” value (yeast gene YKL151C, cultured two hours with substance) was 1.8 and the “The level of expressed mRNA in the presence of chemical substance/The level of expressed mRNA in the absence of chemical substance” value (yeast gene YKL153W, cultured two hours with substance) was 1.3. For the same compound, the “The level of expressed mRNA in the presence of chemical substance/The level of expressed mRNA in the absence of chemical substance” value (yeast gene YKL195W, cultured two hours with substance) was 1.6, the “The level of expressed mRNA in the presence of chemical substance/The level of expressed mRNA in the absence of chemical substance” value (yeast gene YKR049C, cultured two hours with substance) was 3.3 and the “The level of expressed mRNA in the presence of chemical substance/The level of expressed mRNA in the absence of chemical substance” value (yeast gene YKR091W, cultured two hours with substance) was 1.3. The “The level of expressed mRNA in the presence of chemical substance/The level of expressed mRNA in the absence of chemical substance” value (yeast gene YLL056C, cultured two hours with substance) was 2.5, the “The level of expressed mRNA in the presence of chemical substance/The level of expressed mRNA in the absence of chemical substance” value (yeast gene YLR008C, cultured two hours with substance) was 4.9 and the “The level of expressed mRNA in the presence of chemical substance/The level of expressed mRNA in the absence of chemical substance” value (yeast gene YLR031W, cultured two hours with substance) was 1.2. For the same compound, the “The level of expressed mRNA in the presence of chemical substance/The level of expressed mRNA in the absence of chemical substance” value (yeast gene YLR046C (detoxification protein gene)) was 5.4, the “The level of expressed mRNA in the presence of chemical substance/The level of expressed mRNA in the absence of chemical substance” value (yeast gene YLR054C, cultured two hours with substance) was 1.1 and the “The level of expressed mRNA in the presence of chemical substance/The level of expressed mRNA in the absence of chemical substance” value (yeast gene YLR149C, cultured two hours with substance) was 3.0. The “The level of expressed mRNA in the presence of chemical substance/The level of expressed mRNA in the absence of chemical substance” value (yeast gene YLR152C, cultured two hours with substance) was 1.8, the “The level of expressed mRNA in the presence of chemical substance/The level of expressed mRNA in the absence of chemical substance” value (yeast gene YLR194C, cultured two hours with substance) was 0.9 and the “The level of expressed mRNA in the presence of chemical substance/The level of expressed mRNA in the absence of chemical substance” value (yeast gene YLR324W, cultured two hours with substance) was 1.2. For the same compound, the “The level of expressed mRNA in the presence of chemical substance/The level of expressed mRNA in the absence of chemical substance” value (yeast gene YLR327C) was 5.3, the “The level of expressed mRNA in the presence of chemical substance/The level of expressed mRNA in the absence of chemical substance” value (yeast gene YLR346C, cultured two hours with substance) was 7.8 and the “The level of expressed mRNA in the presence of chemical substance/The level of expressed mRNA in the absence of chemical substance” value (yeast gene YLR350W, cultured two hours with substance) was 1.1. The “The level of expressed mRNA in the presence of chemical substance/The level of expressed mRNA in the absence of chemical substance” value (yeast gene YLR387C, cultured two hours with substance) was 1.4, the “The level of expressed mRNA in the presence of chemical substance/The level of expressed mRNA in the absence of chemical substance” value (yeast gene YLR460C, cultured two hours with substance) was 1.1 and the “The level of expressed mRNA in the presence of chemical substance/The level of expressed mRNA in the absence of chemical substance” value (yeast gene YML117W, cultured two hours with substance) was 1.3. The “The level of expressed mRNA in the presence of chemical substance/The level of expressed mRNA in the absence of chemical substance” value (yeast gene YML128C, cultured two hours with substance) was 5.5, the “The level of expressed mRNA in the presence of chemical substance/The level of expressed mRNA in the absence of chemical substance” value (yeast gene YMR009W, cultured two hours with substance) was 2.5 and the “The level of expressed mRNA in the presence of chemical substance/The level of expressed mRNA in the absence of chemical substance” value (yeast gene YMR067C, cultured two hours with substance) was 1.0. For the same compound, the “The level of expressed mRNA in the presence of chemical substance/The level of expressed mRNA in the absence of chemical substance” value (yeast gene YMR090W, cultured two hours with substance) was 2.8, the “The level of expressed mRNA in the presence of chemical substance/The level of expressed mRNA in the absence of chemical substance” value (yeast gene YMR095C, cultured two hours with substance) was 1.0 and the “The level of expressed mRNA in the presence of chemical substance/The level of expressed mRNA in the absence of chemical substance” value (yeast gene YMR097C, cultured two hours with substance) was 1.8. The “The level of expressed mRNA in the presence of chemical substance/The level of expressed mRNA in the absence of chemical substance” value (yeast gene YMR102C, cultured two hours with substance) was 2.8, the “The level of expressed mRNA in the presence of chemical substance/The level of expressed mRNA in the absence of chemical substance” value (yeast gene YMR107W, cultured two hours with substance) was 8.1 and the “The level of expressed mRNA in the presence of chemical substance/The level of expressed mRNA in the absence of chemical substance” value (yeast gene YMR180C, cultured two hours with substance) was 1.7. The “The level of expressed mRNA in the presence of chemical substance/The level of expressed mRNA in the absence of chemical substance” value (yeast gene YMR184W, cultured two hours with substance) was 2.0, the “The level of expressed mRNA in the presence of chemical substance/The level of expressed mRNA in the absence of chemical substance” value (yeast gene YMR191W, cultured two hours with substance) was 2.1 and the “The level of expressed mRNA in the presence of chemical substance/The level of expressed mRNA in the absence of chemical substance” value (yeast gene YMR295C, cultured two hours with substance) was 3.4. For the same compound, the “The level of expressed mRNA in the presence of chemical substance/The level of expressed mRNA in the absence of chemical substance” value (yeast gene YMR316W, cultured two hours with substance) was 6.4, the “The level of expressed mRNA in the presence of chemical substance/The level of expressed mRNA in the absence of chemical substance” value (yeast gene YNL044W, cultured two hours with substance) was 3.4 and the “The level of expressed mRNA in the presence of chemical substance/The level of expressed mRNA in the absence of chemical substance” value (yeast gene YNL074C, cultured two hours with substance) was 1.3.
